Measurements taken from patent US4622336A, “3,3-dialkyl-and 3,3-alkylene-indoline derivatives, processes for their production and pharmaceutical compositions comprising them” (Sandoz Ltd., priority 1982, dated 1986).

Experiments:
inflamed rat-hind-paw = assay: Randall-Selitto test on the inflamed rat-hind-paw (Test B); assay type: in vivo; conditions: po
Method: (B) the Randall-Selitto test on the inflamed rat-hind-paw [Arch. Int. Pharmacodyn. 61, 409-419 (1957)] at dosages of from 20 to 200 mg/kg p.o..

[1] = system: arthritis pain in the rat; assay: arthritis pain test in the rat (Test A); assay type: in vivo; conditions: po
Method: (A) the arthritis pain test in the rat [based on the method of A. W. Pircio et al., Eur. J. Pharmacol., 31, 207-215 (1975)] at dosages of from 3 to 50 mg/kg p.o.; and […]

**Q.** How did the ED50 (inflamed rat-hind-paw) turn out when CCOc1ccc2c(c1)NCC2(C)C [II, 3,3-Dimethyl-6-ethoxy-indoline] was run?
**A.** 78 mg/kg

**Q.** And the ED50 [1]?
**A.** 7 mg/kg

**Q.** CCOc1ccc2c(c1)C(C)(C)CN2 [I, 3,3-Dimethyl-5-ethoxy-indoline] was tested. Which ED50 (inflamed rat-hind-paw) did it give?
**A.** 133 mg/kg

**Q.** And the ED50 [1]?
**A.** 18 mg/kg

**Q.** How did the ED50 [1] turn out when CC(=O)Nc1ccc(O)cc1 [III, Paracetamol, reference compound] was run?
**A.** 174 mg/kg
